In general, IC50 refers to the point on the concentration scale where inhibition reaches its midpoint.

Some results are limits rather than exact numbers.

Sequence of PRMT5/MEP50 (O14744 other isoform, or with tags, fused parts or gaps): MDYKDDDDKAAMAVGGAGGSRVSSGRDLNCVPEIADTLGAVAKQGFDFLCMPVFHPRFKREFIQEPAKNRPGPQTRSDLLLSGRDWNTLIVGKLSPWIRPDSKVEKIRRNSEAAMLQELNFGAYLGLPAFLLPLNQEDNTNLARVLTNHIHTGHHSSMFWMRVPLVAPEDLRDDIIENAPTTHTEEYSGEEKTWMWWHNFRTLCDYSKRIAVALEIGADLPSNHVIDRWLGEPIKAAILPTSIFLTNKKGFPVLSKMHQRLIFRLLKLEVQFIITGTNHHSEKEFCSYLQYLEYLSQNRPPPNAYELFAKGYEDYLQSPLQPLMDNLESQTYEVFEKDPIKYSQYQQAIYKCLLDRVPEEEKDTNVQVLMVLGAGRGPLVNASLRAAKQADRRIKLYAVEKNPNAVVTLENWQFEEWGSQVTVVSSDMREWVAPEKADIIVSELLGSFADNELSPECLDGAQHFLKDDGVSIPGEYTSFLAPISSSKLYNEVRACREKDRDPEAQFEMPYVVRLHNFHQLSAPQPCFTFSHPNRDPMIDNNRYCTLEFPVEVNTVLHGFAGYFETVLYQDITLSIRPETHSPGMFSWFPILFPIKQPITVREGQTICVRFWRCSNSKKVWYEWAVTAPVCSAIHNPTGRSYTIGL
Sequence of PRMT5/MEP50 (Q9BQA1 other isoform, or with tags, fused parts or gaps partner): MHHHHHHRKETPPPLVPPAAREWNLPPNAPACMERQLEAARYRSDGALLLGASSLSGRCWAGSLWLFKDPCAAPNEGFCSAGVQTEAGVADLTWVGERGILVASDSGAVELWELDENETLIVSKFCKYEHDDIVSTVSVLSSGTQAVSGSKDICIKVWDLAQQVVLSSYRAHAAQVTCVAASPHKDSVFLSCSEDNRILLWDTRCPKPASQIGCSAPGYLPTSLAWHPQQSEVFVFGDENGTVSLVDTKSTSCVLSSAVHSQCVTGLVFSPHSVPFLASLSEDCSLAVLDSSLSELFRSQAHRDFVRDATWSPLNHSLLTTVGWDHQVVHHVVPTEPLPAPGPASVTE

For the assay, the target named is PRMT5/MEP50 (Homo sapiens (Human), UniProt O14744). As to the kind of experiment: PRMT5 Biochemical Assay (PRMT5/MEP50 enzyme assay on peptide substrate, 3H-SAM Flashplate). Particulars: PRMT5/MEP50 4 nM, 3H-SAM 75 nM, peptide 40 nM. An excerpt:
S-adenosylmethionine (SAM), S-adenosylhomocysteine (SAH), bicine, KCl, Tween20, dimethylsulfoxide (DMSO), bovine skin gelatin (BSG), and Tris(2-carboxyethyl)phosphine hydrochloride solution (TCEP) were purchased from Sigma-Aldrich at the highest level of purity possible. ^3H-SAM was purchase from American Radiolabeled Chemicals with a specific activity of 80 Ci/mmol. 384-well streptavidin Flashplates were purchased from PerkinElmer.
Peptide representative of human histone H4 residues 1-15 was synthesized with a C-terminal linker-affinity tag motif and a C-terminal amide cap by 21st Century Biochemicals. The peptide was high high-perfomance liquid chromatography (HPLC) purified to greater than 95% purity and confirmed by liquid chromatography mass spectrometry (LC-MS). The sequence was Ac-[…][K-Biot]-amide (SEQ ID NO.:3).
Full-length human PRMT5 (NM_006109.3) transcript variant 1 clone was amplified from a fetal brain cDNA library, incorporating flanking 5′ sequence encoding a FLAG tag ([…]) (SEQ ID NO.:4) fused directly to Ala 2 of PRMT5. Full-length human MEP50 (NM_024102) clone was amplified from a human testis cDNA library incorporating a 5′ sequence encoding a 6-histidine tag (MHHHHHH) (SEQ ID NO.:5) fused directly to Arg 2 of MEP50. The amplified genes were sublconed into pENTR/D/TEV (Life Technologies) and subsequently transferred by Gateway™ attL×attR recombination to pDEST8 baculvirus expression vector (Life Technologies).
Recombinant baculovirus and Baculovirus-Infected Insect Cells (BIIC) were generated according to Bac-to-Bac kit instructions (Life Technologies) and Wasilko, 2006, respectively. Protein over-expression was accomplished by infecting exponentially growing Spodoptera frugiperda (SF9) cell culture at 1.2×10^6 cell/ml with a 5000 fold dilution of BIIC stock. Infections were carried out at 27° C. for 72 hours, harvested by centrifugation, and stored at −80° C. for purification.
Flag-PRMT5/6His-MeP50 was eluted with 300 mM Imidazole in the same buffer. The purity of recovered protein was 87%. Reference: Wasilko, D. J. and S. E. Lee: “TIPS: titerless infected-cells preservation and scale-up” Bioprocess J., 5 (2006), pp. 29-32.
General Procedure for PRMT5/MEP50 Enzyme Assays on Peptide Substrates.
The assays were all performed in a buffer consisting of 20 mM Bicine (pH=7.6), 1 mM TCEP, 0.005% BSG, and 0.002% Tween20, prepared on the day of use. Compounds in 100% DMSO (1 ul) were spotted into a polypropylene 384-well V-bottom plates (Greiner) using a Platemate Plus outfitted with a 384-channel head (Thermo Scientific). DMSO (1 ul) was added to Columns 11, 12, 23, 24, rows A-H for the maximum signal control and 1 ul of SAH, a known product and inhibitor of PRMT5/MEP50, was added to columns 11, 12, 23, 24, rows I-P for the minimum signal control. A cocktail (40 ul) containing the PRMT5/MEP50 enzyme and the peptide was added by Multidrop Combi (Thermo-Fisher). The compounds were allowed to incubate with PRMT5/MEP50 for 30 min at 25 degrees Celsius, then a cocktail (10 ul) containing ^3H-SAM was added to initiate the reaction (final volume=51 ul). The final concentrations of the components were as follows: PRMT5/MEP50 was 4 nM, ^3H-SAM was 75 nM, peptide was 40 nM, SAH in the minimum signal control wells was 100 uM, and the DMSO concentration was 1%. The assays were stopped by the addition of non-radioactive SAM (10 ul) to a final concentration of 600 uM, which dilutes the ^3H-SAM to a level where its incorporation into the peptide substrate is no longer detectable. 50 ul of the reaction in the 384-well polypropylene plate was then transferred to a 384-well Flashplate and the biotinylated peptides were allowed to bind to the streptavidin surface for at least 1 hour before being washed three times with 0.1% Tween20 in a Biotek ELx405 plate washer. […]
On to `O=C1CN(c2cncc(N3CCOCC3)c2)CCN1CC(O)CN1CCc2ccccc2C1` (centres unmarked) [Compound 8, 1-(3-(3,4-dihydroisoquinolin-2(1H)-yl)-2-hydroxypropyl)-4-(5-morpholinopyridin-3-yl)piperazin-2-one], for which the IC50 was under 0.1 µM. On to `O=C1CN(c2ccccc2Cl)CCN1CC(O)CN1CCc2ccccc2C1` (centres unmarked) [Compound 9], for which the 50% inhibitory concentration (IC50) is 0.101 to 1 µM.

For the compound `CN(C)c1ccccc1N1CCN(C[C@H](O)CN2CCc3ccccc3C2)C(=O)C1` [Compound 29], the half-inhibitory concentration (IC50) lay within 0.101 to 1 µM. For the compound `O=C1CN(c2cccc(N3CCOCC3)c2)CCN1CC(O)CN1CCc2ccccc2C1` (centres unmarked) [Compound 12, 1-(3-(3,4-dihydroisoquinolin-2(1H)-yl)-2-hydroxypropyl)-4-(3-morpholinophenyl)piperazin-2-one], the 50% inhibitory concentration (IC50) is under 0.1 µM. `Cc1ccc(N2CCN(CC(O)CN3CCc4ccccc4C3)C(=O)C2)cc1` (centres unmarked) [Compound 15, 1-(3-(3,4-dihydroisoquinolin-2(1H)-yl)-2-hydroxypropyl)-4-(p-tolyl)piperazin-2-one]: the IC50 lay within 0.101 to 1 µM. With `O=C1CN(c2cccc3cccnc23)CCN1CC(O)CN1CCc2ccccc2C1` (centres unmarked) [Compound 4, 1-(3-(3,4-dihydroisoquinolin-2(1H)-yl)-2-hydroxypropyl)-4-(quinolin-8-yl)piperazin-2-one], the concentration for half-maximal inhibition (IC50) was under 0.1 µM.

On to `O=c1cc(Nc2ccccc2)ccn1C[C@H](O)CN1CCc2ccccc2C1` [Compound 19, (R)-1-(3-(3,4-dihydroisoquinolin-2(1H)-yl)-2-hydroxypropyl)-4-(phenylamino)pyridin-2(1H)-one], for which the half-inhibitory concentration (IC50) lay in the range of 0.101 to 1 µM. In the case of `O=C1COc2ccccc2N1CC(O)CN1CCc2ccccc2C1` (centres unmarked) [Compound 31, 4-(3-(3,4-dihydroisoquinolin-2(1H)-yl)-2-hydroxypropyl)-2H-benzo[b][1,4]oxazin-3(4H)-one], the concentration for half-maximal inhibition (IC50) is 0.101 to 1 µM. For `O=C1CN(c2cccc(F)c2)CCN1CC(O)CN1CCc2ccccc2C1` (centres unmarked) [Compound 6], the half-maximal inhibitory concentration (IC50) is under 0.1 µM. With `O=C1CN(c2ccc(Cl)cc2)CCN1CC(O)CN1CCc2ccccc2C1` (centres unmarked) [Compound 7, 4-(4-chlorophenyl)-1-(3-(3,4-dihydroisoquinolin-2(1H)-yl)-2-hydroxypropyl)piperazin-2-one], the IC50 was under 0.1 µM. With `O=C1Cc2ccccc2N1CC(O)CN1CCc2ccccc2C1` (centres unmarked) [Compound 1, 1-(3-(3,4-dihydroisoquinolin-2(1H)-yl)-2-hydroxypropyl)indolin-2-one], the half-maximal inhibitory concentration (IC50) lay in the range of 0.101 to 1 µM.

The values above are taken from patent US10150758B2, “PRMT5 inhibitors and uses thereof” (Epizyme, Inc., priority 2012, dated 2018).
